According to US5902726A, “Activators of the nuclear orphan receptor peroxisome proliferator-activated receptor gamma” (priority 1998, dated 1999):
Read-outs that look alike come from different tables or passages of the source.

Tests used:
[1] = molecular target: T1, GAL4-PPARγ chimera (ligand-binding domain of the murine PPARγ) (Mus musculus, UniProt P37238); experiment: Transient cotransfection assay: SPAP reporter; format: cell-based; details: for fold induction at 10 µM: read-out: Fold Activation
T1 construct: transient in CV-1 cells with UAS-tk-SPAP reporter
T1 sequence (P37238 204-505): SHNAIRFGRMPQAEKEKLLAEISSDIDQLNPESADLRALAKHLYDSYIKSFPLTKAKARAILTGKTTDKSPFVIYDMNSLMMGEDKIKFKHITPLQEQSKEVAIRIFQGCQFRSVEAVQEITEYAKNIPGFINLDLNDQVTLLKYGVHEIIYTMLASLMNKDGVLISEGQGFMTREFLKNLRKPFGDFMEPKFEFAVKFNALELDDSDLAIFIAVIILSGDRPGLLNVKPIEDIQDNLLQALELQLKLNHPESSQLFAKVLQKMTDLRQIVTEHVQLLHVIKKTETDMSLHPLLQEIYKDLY
Text: A transient cotransfection assay was used to screen for activators of PPARγ. As mammalian cell lines contain endogenous nuclear receptors that can complicate interpretation of the results, we used an established chimera system in which the ligand-binding domain of the murine PPARγ was fused to the DNA binding domain of the yeast transcription factor GAL4. The GAL4-PPARγ chimera was cotransfected into CV-1 cells with a reporter construct containing five copies of the GAL4 binding site upstream of the thymidine kinase promoter driving secreted placental alkaline phosphatase (SPAP) as reporter.
GAL4-PPAR chimeras and UAS-tk-CAT/SPAP reporters.
CV-1 cells were plated in DME medium supplemented with 10% delipidated fetal calf serum at a density of 2.4×10^4 cells per well in a 96-well plate (Costar) 16-24 h before transfection. In general, 8.0 ng of reporter plasmid, 25.0 ng of β-galactosidase expression vector (pCH110, Pharamacia), and 2.0 ng of GAL4-PPARγ expression vector were mixed with carrier DNA (pBluescript, Stratagene) to a total of 80 ng of DNA per well in a volume of 10 μl optiME medium (GIBCO BRL). To this, a second mix, containing 9.3 μl optiME medium and 0.7 μl of LIPOFECTAMINE™ (GIBCO BRL), was added. After 30 min. an additional 80 μl of optiME medium were added and the combined mix was then applied to the cells.

[2] = system: enhancer/promoter of the lipid-binding protein aP2; details: Harris and Kletzien, 1994; cited from earlier work
[3] = system: pre-adipocyte cell lines; details: cited from earlier work
[4] = molecular target: T2, GST-PPARγ LBD (Mus musculus, UniProt P37238); experiment: Saturation binding of radiolabeled ligand to GST-PPARγ LBD; parameters: species or system murine; details: for non-specific binding: 500-fold excess of nontritiated compound
T2 construct: cDNA encoding amino acids 174 to 475 of PPARg1; made in house; host or cells: E. coli BL21 (DE3)plysS, crude bacterial extract
T2 sequence (P37238 174-475 isoform P37238-2): T1 sequence (P37238 204-505)
Experimental: (§1) To test for direct interactions between thiazolidinediones and PPARγ,the ligand binding domain of PPARγ was expressed in E. Coli as a fusion protein with glutathionine-S-transferase (GST-PPARγ LBD).
Bound was separated from free radioactivity by elution through 1 ml Sephadex G-25 desalting columns (Boehringer Mannheim). Bound radioactivity eluted in the column void volume and was quantitated by liquid scintillation counting.

[5] = system: glutathione-S-transferase; experiment: Binding control in extracts from bacteria expressing glutathione-S-transferase; details: extracts from bacteria expressing glutathione-S-transferase alone
Text: as §1

[6] = CV-1 cells, SPAP reporter, test compound at 10^-5 M, 24 h

Row | fold induction at 10 µM [1, 6] | SMILES | other results
1 | 21.2 | O=C(O)Cc1ccc2[nH]c(-c3ccccc3)c(CCc3ccccc3)c2c1 [(3-phenethyl-2-phenyl-1H-indol-5-yl)-acetic acid] | –
2 | 18.2 | O=C1NC(=O)C(Cc2ccc3c(c2)CCC(Cc2ccccc2)O3)S1 (stereo not drawn) [5-(2-Benzyl-chroman-6-ylmethyl)-thiazolidine-2,4-dione] | –
3 | 25.9 | CC1(C)CCC(C)(C)c2cc3ncc(-c4ccccc4C(=O)O)cc3cc21 [2-(6,6,9,9-tetramethyl-6,7,8,9-tterahydro-benzo[g]quinolin-3-yl)-benzoic acid] | –
4 | 25.7 | Cc1cccc(Nc2cc(Cl)nc(SCC(=O)O)n2)c1C [{4-Chloro-6-(2,3-dimethyl-phenylamino)-pyrimidin-2-ylsulfanyl}-acetic acid] | –
5 | 23.9 | CCCCc1nc(Cl)c(C(=O)NCC(=O)OCC)n1Cc1ccc2oc(-c3ccccc3C(=O)O)c(Br)c2c1 [2-[3-Bromo-5-(2-butyl-4-chloro-5-ethoxycarbonylmethylcarbamoyl-imidazol-1-ylmethyl)-benzofuran-2-yl]-benzoic acid] | –
6 | 21.7 | CCCc1c(-c2ccccc2)[nH]c2ccc(CC(=O)O)cc12 [(2-Phenyl-3-propyl-1H-indol-5-yl)-acetic acid] | –
7 | 17.8 | CN(C)c1ccc(Cc2ccc(N(C)C)cc2CC(=O)O)cc1 [[5-Dimethylamino-2-(4-dimethylamino-benzyl)-phenyl]-acetic acid] | –

The next lines start with the molecule.

Row | SMILES | fold induction at 10 µM [1, 6] | other results
8 | CCCCCC(O)C=CC1C(=O)CC(O)C1CC=CCCCC(=O)O (stereo not drawn) [7-[5-Hydroxy-2-(3-hydroxy-oct-1-enyl)-3-oxo-cyclopentyl]-hept-5-enoic acid] | 23.8 | –
9 | CCc1ccc(CCOc2ccc(CC3SC(=O)NC3=O)cc2)nc1 (stereo not drawn) [pioglitazone] | – | Expression of chimeric aP2 enhancer/promoter CAT reporter gene [2]: stimulate expression; Expression of adipocyte-specific genes aP2 and adipsin and glucose transporter proteins GLUT-1 and GLUT-4 [3]: increased expression
10 | CC1(COc2ccc(CC3SC(=O)NC3=O)cc2)CCCCC1 (stereo not drawn) [5-[4-(1-methyl-cyclohexylmethoxy)-benzyl)-thiazolidine-2,4-dione] | 46.1 | –
11 | O=C(O)CCCCCCC1=C(c2ccc(C(O)C3CCCC3)cc2)CCC1=O (stereo not drawn) [7-{2-[4-(Cyclopentyl-hydroxy-methyl)-phenyl]-5-oxo-cyclopent-1-enyl}-heptanoic acid] | 24.6 | –
12 | CC(C)Oc1cc(CCCCC(=O)O)c(C=CC(=O)CCCCCC(=O)O)c(OC(C)C)c1 [9-[2-(4-Carboxy-butyl)-4,6-diisopropoxy-phenyl]-7-oxo-non-8-enoic acid] | 11.3 | –
13 | CCCCCC(=O)C=CC1C(O)CC(=O)C1CCCCCCC(=O)O (stereo not drawn) [7-[43-Hydroxy-5-oxo-2-(3-oxo-oct-1-enyl)-cyclopentyl]-heptanoic acid] | – | Fold Activation ([1]; CV-1 cells, SPAP reporter, test compound at 10^-5 M, 24 h, 10 µM): 25.6
14 | CCCCCC(O)C=CC1C(O)CC2CC(=CCCCC(=O)O)CC21 (stereo not drawn) [5-[5-Hydroxy-4-(3-hydroxy-oct-1-enyl)-hexahydro-pentalen-2-ylidene]-pentanoic acid] | – | fold induction at 10 µM ([1]; CV-1, 24 h): 19.6
15 | CN(CCOc1ccc(CC2SC(=O)NC2=O)cc1)c1ccccn1 (stereo not drawn) [5-{4-[2-(Methyl-pyridine-2-yl-amino)-ethoxy]-benzyl}-thiazolidine-2,4-dione] | – | Specific binding ([4]; at 100 nM tritiated ligand): 13,500 dpm; non-specific binding ([4]; at 100 nM tritiated ligand): 1,700 dpm; Specific binding ([4]; at 200 nM tritiated ligand): 14,500 dpm; non-specific binding ([4]; at 200 nM tritiated ligand): 1,900 dpm; Binding [5]: No binding was detected
16 | CCCCCC(C)c1ccc(C2=CCCC2CCCCCCC(=O)O)cc1 (stereo not drawn) [7-{2-[4-(1-Methyl-hexyl)-phenyl]-cyclopent-2-enyl}-heptanoic acid] | 27 | –
